These results are taken from PubChem BioAssay (NCI).

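Compound exposure: 48 hours, 5 concentrations, 96-well plates. Abbreviation: GI50, concentration required for 50% inhibition of growth. TGI marks complete inhibition of growth.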

The test concerns MDA-MB-468 breast. The experiment in a line: inhibition of tumour cell growth, NCI panel, 48 h.
Consider `Cc1ccc(C(=NN=C(N)N)c2ccc(C)cc2)cc1`, for which the GI50 was 232 nM and the TGI is 0.75 µM.
As to `CCC#CC[C@H]1C/C=C2/C(=O)C=C[C@@H]2C/C=C\CCCC(=O)O1`, the GI50 is 928 nM and the TGI was found to be 5.47 µM.
In the same order, the values of `CCS(=O)(=O)c1ccc(OC)c(Nc2ncc(-c3cccc(OC)c3)o2)c1` are 10500 nM and greater than 25 µM.
Regarding `Cc1cc(C)c(C(=O)CC(=O)c2cccnc2)c(C)c1`, the GI50 was 8680 nM and the TGI worked out at 49.8 µM.
Taken in the same sequence, the figures for `COc1cc[nH]c1/C=C1\C(=O)Nc2ccccc21` were 1110 nM and greater than 25 µM.
Take `CC/C=C\C[C@@H]1C/C=C2/C(=O)C=C[C@H]2C/C=C\CCCC(=O)O1`: the GI50 was 976 nM and the TGI came out at 2.58 µM.
In the case of `CCCCN=C(N)c1ccc(OCCSCCOc2ccc(C(N)=NCCCC)cc2)cc1`, the GI50 was 360 nM and the TGI stood at 3.87 µM.
`CC(C)c1ccc(C(=O)Nc2sc3c(c2C(N)=O)CCC(=O)C3)cc1`: the GI50 is 453 nM and the TGI amounted to 1.81 µM.
Taken in the same sequence, the figures for `COC(=O)Nc1nc2ccc(Oc3ccc(NC(=O)Nc4ccccc4)cc3)cc2[nH]1` were 56.1 nM and 0.489 µM.
Regarding `CCN(CC)c1ccc(C(=N)c2ccc(N(CC)CC)cc2)cc1`, the GI50 was 312 nM and the TGI amounted to 1.43 µM.
Taken in the same sequence, the figures for `CCOC(=O)c1cc(/C(=N\O)c2cc(OC)c(OC)c(OC)c2)n2cc(C)cc(C)c12` were 1460 nM and 4.79 µM.
Turning to `CCN1C(=O)CNc2ncc(-c3ccc(-c4ncn[nH]4)nc3C)nc21`, the GI50 is 196 nM and the TGI was 1.17 µM.
Taken in the same sequence, the figures for `O=C(CCl)Nc1ccc(Cl)cc1` were 2340 nM and 6.28 µM.
In the same order, the values of `COc1cc(C2=NN(C(C)=O)C(c3ccc(OC(C)=O)cc3OC(C)=O)O2)c(OC(C)=O)c2ccccc12` (stereo unspecified) are 1060 nM and 6.58 µM.
Consider `O=C(N/N=C/c1cccc(O)c1O)c1ccccc1`, for which the GI50 is 1290 nM and the TGI was 11.1 µM.
In the same order, the values of `CC1CN1CC(O)C(O)CN1CC1C` (stereo unspecified) are 278 nM and 1.68 µM.
For the compound `Nc1ncc(-c2cnn(CCO)c2)c2scc(-c3ccc(NC(=O)Nc4cccc(F)c4)cc3)c12`, the GI50 was 443 nM and the TGI came out at 5.66 µM.
Taken in the same sequence, the figures for `COc1ccc(OC)c(/C=C/C(=O)N/N=C/c2ccc(Cl)cc2)c1` were 76.8 nM and 0.363 µM.
For the compound `O=C(Nc1ccc(Cl)cc1)c1cc(-c2ccc(F)cc2)c2sc(=O)[nH]c2n1`, the GI50 is 687 nM and the TGI was 4.97 µM.
Consider `COc1cc(NC(=O)c2cc(O)c(CC=C(C)C)c(O)c2)cc2c1O[C@]1(C)CC[C@@H](O)C(C)(C)[C@H]1C2`, for which the GI50 was 3420 nM and the TGI is 19.8 µM.
Consider `CCS(=O)(=O)c1ccc(OC)c(Nc2ncc(-c3cccc(C(C)=O)c3)o2)c1`, for which the GI50 is 3460 nM and the TGI was greater than 25 µM.
Taken in the same sequence, the figures for `O=C(c1cccc(O)c1O)c1cn(Cc2ccc(F)cc2)c2cccc(O)c12` were 5460 nM and 21.7 µM.
As to `NC(=S)N/N=C/c1ccc(OC(=O)COc2ccc(Cl)cc2)cn1`, the GI50 was 2540 nM and the TGI is 9.59 µM.
Regarding `COc1cc(OC)c(/C=C/C(=O)c2c(OC)cccc2OC)c(OC)c1`, the GI50 was 394 nM and the TGI came out at 3.16 µM.
Taken in the same sequence, the figures for `CCOC(=O)Sc1ncnc2nc[nH]c12` were 350 nM and greater than 100 µM.
Taken in the same sequence, the figures for `CN(C)c1ccc(N)cc1` were 2810 nM and 8.7 µM.
Taken in the same sequence, the figures for `COc1ccc(C(=O)c2cc(C)c(OC)c(C)c2)c(OC)c1N(C(=O)C(Cl)Cl)C(=O)C(Cl)Cl` were 25.9 nM and 0.0926 µM.
Regarding `COc1ccc(C(=O)COc2cccc(/C=C3\COc4ccc5ccccc5c4C3=O)c2)cc1`, the GI50 was 2360 nM and the TGI came out at 12.3 µM.
